Data taken from EP1285918A1, “C7 Ester substituted taxanes as antitumor agents” (Florida State University Research Foundation, Inc., priority 2001, dated 2003).
Where two headings read alike, the source gives them in different places.

Columns and labels:
[1] = system: Panc-1 Human Pancreatic Carcinoma Xenografts
Description: (§1) Other antitumor compounds were similarly formulated. […] The dosing volume was 0.3 mL per 20 g mouse.
Female NCr-nude mice (6-8 weeks of age, implanted subcutaneously with 1 mm^3 Panc-1 pancreatic carcinoma fragments in the flank) were sorted into treatment groups of six mice each. […] Dosing was initiated on Day 1. The antitumor compounds were given i.v. at an estimated maximum tolerated dose (MTD) appropriate for each agent on a qd x 1 schedule (single administration of compound). […] Taxotere was given i.v. at a dose of 70 mg/kg on a qd x 1 schedule. The vehicle was given i.v. to control mice in Group 1 in each test on Day 1 (qd x 1) schedule. Treatment groups are detailed in Table 12. The study was terminated on Day 63.
The mean days of survival is the number of days after which a neoplasm reached a size of 1.5 g and the animal was euthanized. A complete response is obtained if the tumor is not palpable at the end of the study. A partial response is obtained if the tumor shrinks to a size smaller than its size on Day 1 of the study.

[2] = system: VM46 Human Colon Carcinoma Xenografts; conditions: for MDS (n): days until tumor reached 1.5 g
Description: as §1
Female NCr-nude mice (6-8 weeks of age, implanted subcutaneously with 1 mm^3 VM46 colon carcinoma fragments in the flank) were sorted into treatment groups of six mice each. […] Dosing was initiated on Day 1. The antitumor compounds were given i.v. at an estimated maximum tolerated dose (MTD) appropriate for each agent on a qd x 1 schedule (single administration of compound). […] Taxotere was given i.v. at a dose of 70 mg/kg on a qd x 1 schedule. The vehicle was given i.v. to control mice in Group 1 in each test on Day 1 (qd x 1) schedule. Treatment groups are detailed in Table 13. The VM46 study ended on Day 64.
(§2) The results are summarized in table 14 and include mean days of survival (MDS), number of toxic deaths, number of survivors, number of complete or partial responses, and number with stable disease. The mean days of survival is the number of days after which a neoplasm reached a size of 1.5 g and the animal was euthanized. A complete response is obtained if the tumor is not palpable at the end of the study. A partial response is obtained if the tumor shrinks to a size smaller than its size on Day 1 of the study. […]

[3] = system: DU 145 Human Prostate Carcinoma Xenografts; conditions: DU145; for Mean Score: tumor score 1 to 10, group mean; for MDS (n): 1.5 g cut-off
Description: (§3) Other antitumor compounds were similarly formulated. […] The dosing volume was 0.3 ml per 20 g mouse.
Male NCr-nude mice (implanted subcutaneously with 1 mm^3 DU145 prostate carcinoma fragments in the flank) were sorted into treatment groups of five mice each. […] Dosing was initiated on Day 1. The antitumor compounds were given i.v. at an estimated maximum tolerated dose (MTD) appropriate for each agent on a qd x 1 schedule (single administration of compound). […] The vehicle was administered i.v. to control mice in Group 1 on the qd x 1 schedule. The study was terminated on Day 91. Treatment groups are detailed in Table 5.
The mean days of survival is the number of days after which a neoplasm reached a size of 1.5 g and the animal was euthanized. A complete response is obtained if the tumor is not palpable at the end of the study. A partial response is obtained if the tumor shrinks to a size smaller than its size on Day 1 of the study. […]

[4] = system: A375 Human Melanoma Xenografts; conditions: A375; for Complete Response / Partial Response / Stable Disease / Survivors / MDS (n) / Toxic Deaths: Day 60; for Mean Score: tumor score 1 to 10, group mean; for MDS (n): 2.0 g cut-off; for survival extension compared to Group 1 controls: i.v. qd x 1 (mg/kg: Taxol 24, 1393 72.6, 1418 107.6, Taxotere 70)
Description: as §3
Female NCr-nude mice (implanted subcutaneously with 1 mm^3 A375 melanoma in the flank) were sorted into treatment groups of six mice each, except for the Taxotere group having seven mice each. […] Dosing was initiated on Day 1. The antitumor compounds were given i.v. at an estimated maximum tolerated dose (MTD) appropriate for each agent on a qd x 1 schedule (single administration of compound). […] Taxotere was given i.v. on a qd x 1 schedule at a dose of 70 mg/kg. The vehicle was administered i.v. to control mice in Group 1 on the qd x 1 schedule. Treatment groups are detailed in Table 9. The study was terminated on Day 60.
as §2, with “Table 10” for “table 14”, “tumor” for “neoplasm”, “2.0” for “1.5”

[5] = 15 mg/kg i.p. qd x 5, 6 mice/group, study end Day 63
[6] = 24 mg/kg i.v. qd x 1 as two split doses, 6 mice/group, study end Day 63
[7] = Panc-1, i.v. qd x 1 (mg/kg: Taxol 24, 1351 75.32, 1393 72.6, 1401 107.6, 1418 107.6, 1424 195.1), 6 mice/group
[8] = 15 mg/kg i.p. qd x 5, 6 mice/group, study end Day 64
[9] = 24 mg/kg i.v. qd x 1, 6 mice/group, study end Day 64
[10] = VM46, Taxol 24 mg/kg i.v. qd x 1, 6 mice, Day 64
[11] = Taxol i.p. 18 mg/kg qd x 5, 5 mice, Day 91
[12] = i.v. qd x 1 (mg/kg: Taxol 24, 1351 107.6, 1393 72.6, 1401 107.6, 1418 107.6, 1424 195.1), 5 mice/group, Day 91
[13] = i.v. qd x 1 (mg/kg: Taxol 24, 1351 107.6, 1393 72.6, 1401 107.6, 1418 107.6, 1424 195.1)
[14] = Taxol i.p. 18 mg/kg qd x 5, 6 mice
[15] = i.v. qd x 1 (mg/kg: Taxol 24, 1351 107.6, 1393 72.6, 1401 107.6, 1418 107.6, 1424 195.1, Taxotere 70)
[16] = i.v. qd x 1 at estimated MTD, 6 mice/group, study end Day 63
[17] = 107.6 mg/kg i.v. qd x 1, 6 mice/group, study end Day 64

Structure (SMILES): CC(=O)O[C@H]1C(=O)[C@@]2(C)[C@H]([C@H](OC(=O)c3ccccc3)[C@]3(O)C[C@H](OC(=O)[C@H](O)[C@@H](NC(=O)c4ccccc4)c4ccccc4)C(C)=C1C3(C)C)[C@]1(OC(C)=O)CO[C@@H]1C[C@@H]2O [Taxol, paclitaxel, reference compound]
- Complete Response [1, 5]: 0
- Mean Score [1, 5]: 1.2 ± 1.2
- Partial Response [1, 5]: 1
- Stable Disease [1, 5]: 0
- Survivors [1, 5]: 1
- Toxic Deaths [1, 5]: 4
- Complete Response [1, 6]: 0
- Mean Score [1, 6]: 2.2 ± 0.8
- Partial Response [1, 6]: 0
- Stable Disease [1, 6]: 1
- Survivors [1, 6]: 1
- Toxic Deaths [1, 6]: 1
- MDS (n) ([1]; 24 mg/kg i.v. qd x 1 as two split doses, 6 mice/group, study end Day 63, days until tumor reached 1.5 g): 34.7 ± 3.4 days
- Toxic Deaths ([1]; Panc-1, Taxol i.p. 15 mg/kg qd x 5, 6 mice): four
- Toxic Deaths [1, 7]: One
- MDS ([1]; Panc-1, i.v. qd x 1 (mg/kg: Taxol 24, 1351 75.32, 1393 72.6, 1401 107.6, 1418 107.6, 1424 195.1), 6 mice/group, 1.5 g cut-off, Day 63): 34.7 days
- Stable Disease ([1]; Panc-1, i.v. qd x 1 (mg/kg: Taxol 24, 1393 72.6, 1418 107.6), 6 mice/group, Day 63): one
- Complete Response [2, 8]: 0
- Mean Score [2, 8]: 1.8 ± 1.3
- Partial Response [2, 8]: 1
- Stable Disease [2, 8]: 0
- Survivors [2, 8]: 1
- Toxic Deaths [2, 8]: 3
- MDS (n) [2, 8]: 36.1 ± 12.2 (2) days
- Complete Response [2, 9]: 0
- Mean Score [2, 9]: 3.8 ± 1.4
- Partial Response [2, 9]: 1
- Stable Disease [2, 9]: 1
- Survivors [2, 9]: 2
- Toxic Deaths [2, 9]: 0
- Partial Response [2, 10]: one
- Stable Disease [2, 10]: one
- toxicity ([2]; VM46, Taxol i.p. 15 mg/kg qd x 5): excessively toxic
- mortalities ([2]; VM46, Taxol i.p. 15 mg/kg qd x 5, 6 mice): three
- increase in survival compared to Group 1 controls ([3]; Taxol 24 mg/kg i.v. qd x 1): 9%
- toxicity ([3]; Taxol i.p. 18 mg/kg qd x 5): highly toxic
- weight loss ([3]; Taxol i.p. 18 mg/kg qd x 5): more than 20%
- Complete Response [3, 11]: 0
- Partial Response [3, 11]: 0
- Stable Disease [3, 11]: 0
- Survivors [3, 11]: 0
- Mean Score ([3]; Taxol i.p. 18 mg/kg qd x 5): 0 ± 0
- MDS (n) [3, 12]: 37.4 ± 8.9 (3) days
- Complete Response [3, 12]: 0
- Partial Response [3, 12]: 0
- Stable Disease [3, 12]: 1
- Survivors [3, 12]: 1
- Mean Score [3, 13]: 2 ± 1
- toxicity ([4]; Taxol i.p. 18 mg/kg qd x 5): highly toxic
- Complete Response [4, 14]: 0
- Partial Response [4, 14]: 0
- Stable Disease [4, 14]: 0
- Survivors [4, 14]: 0
- Mean Score ([4]; Taxol i.p. 18 mg/kg qd x 5): 0±0
- MDS (n) [4, 15]: 18.1 ± 0.6 (4) days
- Complete Response [4, 15]: 0
- Partial Response [4, 15]: 0
- Stable Disease [4, 15]: 0
- Survivors [4, 15]: 0
- Toxic Deaths [4, 15]: 2
- Mean Score [4, 15]: 0.8 ± 0.3
- survival extension compared to Group 1 controls [4]: 26%

Structure (SMILES): CCC(=O)O[C@H]1C[C@H]2OC[C@@]2(OC(C)=O)[C@H]2[C@H](OC(=O)c3ccccc3)[C@]3(O)C[C@H](OC(=O)[C@H](O)[C@@H](NC(=O)OC(C)(C)C)c4ccoc4)C(C)=C([C@@H](O)C(=O)[C@]12C)C3(C)C [Compound 1401]
- Toxic Deaths [1, 7]: no toxic deaths
- Complete Response [1, 16]: 0
- Mean Score [1, 16]: 6.8 ± 0.8
- Partial Response [1, 16]: 3
- Stable Disease [1, 16]: 3
- Survivors [1, 16]: 6
- Toxic Deaths [1, 16]: 0
- mean group weight losses ([1]; mouse, in vivo, iv): 3-13%
- tolerability ([1]; mouse, in vivo, iv): well-tolerated
- Complete Response [2, 17]: 0
- Mean Score [2, 17]: 2.5 ± 1.3
- Partial Response [2, 17]: 1
- Stable Disease [2, 17]: 0
- Survivors [2, 17]: 1
- Toxic Deaths [2, 17]: 1
- MDS (n) [2, 17]: 46.1 ± 5.9 (4) days
- Toxic Deaths ([2]; VM46, i.v. qd x 1 at estimated MTD, 6 mice/group): not more than one
- maximal mean group weight losses ([2]; mouse, in vivo, iv): under 12%
- tolerability ([2]; mouse, in vivo, iv): Acceptable toxicity
- MDS (n) [3, 12]: 72.6 ± 8.7 (3) days
- Complete Response [3, 12]: 1
- Partial Response [3, 12]: 0
- Stable Disease [3, 12]: 0
- Survivors [3, 12]: 1
- Toxic Deaths [3, 12]: 1
- Mean Score [3, 13]: 3.6 ± 1.7
- MDS (n) [4, 15]: 22.2 ± 1.1 (6) days
- Complete Response [4, 15]: 0
- Partial Response [4, 15]: 0
- Stable Disease [4, 15]: 0
- Survivors [4, 15]: 0
- Toxic Deaths [4, 15]: 0
- Mean Score [4, 15]: 2±0

Structure (SMILES): CCC(=O)OC1CC2OCC2(OC(C)=O)C2C(OC(=O)c3ccccc3)C3(O)CC(OC(=O)C(O)C(NC(=O)OC(C)(C)C)c4ccco4)C(C)=C(C(O)C(=O)C12C)C3(C)C (stereo not shown) [Compound 1393, 3'-Desphenyl-3'-(2-furyl)-7-propionyl taxotere]
- Survivors [1, 16]: 6
- Survivors ([2]; 72.6 mg/kg i.v. qd x 1, 6 mice/group, study end Day 64): 1
- Survivors [3, 12]: 4
- Survivors [4, 15]: 0
- survival extension compared to Group 1 controls [4]: 250%
